Our source for the Ki and IC50 values is patent US20130217702A1 (Richter Gedeon Nyrt., priority 2010, published 2013).

In experiment [1] the target is T1, human recombinant bradykinin B1 receptor (Homo sapiens, UniProt P46663).
T1 construct: host or cells: CHO cells, clone hB1-A5
T1 sequence (P46663 1-353): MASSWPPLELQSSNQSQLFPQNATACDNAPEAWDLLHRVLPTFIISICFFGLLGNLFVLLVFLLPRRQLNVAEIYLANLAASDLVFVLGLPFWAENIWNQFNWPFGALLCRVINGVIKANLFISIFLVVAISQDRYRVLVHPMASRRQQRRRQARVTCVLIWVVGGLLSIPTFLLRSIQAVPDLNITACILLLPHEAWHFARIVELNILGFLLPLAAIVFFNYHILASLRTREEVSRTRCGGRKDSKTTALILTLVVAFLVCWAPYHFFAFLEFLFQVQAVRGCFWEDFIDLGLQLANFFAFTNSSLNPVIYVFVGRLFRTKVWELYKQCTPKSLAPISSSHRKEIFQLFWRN
Description: Human recombinant bradykinin B1 receptor competitive radioligand binding. Particulars: hB1 expressed in CHO cells, [3H]-[Des-Arg10] Kallidin radioligand; read-out: B1 binding. The gist of the method:
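Competition radioligand binding on CHO-expressed hB1 membranes, using [3,4-prolyl-3,4-^3H(N)]-[Des-Arg^10] Kallidin as tracer, 15 min at 25° C. Excess Lys-des-Arg^9-Bradykinin (10 μM) set nonspecific binding. Sigmoidal fits of at least seven concentrations gave IC50, converted to Ki via Cheng-Prusoff; KD from Scatchard.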

For experiment [2], the target named is T2, recombinant human B1 receptors (Homo sapiens, UniProt P46663).
T2 construct: host or cells: CHO (CHO-B1)
T2 sequence (P46663 1-353): T1 sequence (P46663 1-353)
Description: Functional assay: antagonist potency by cytosolic calcium measurement (plate reader fluorimeter) in CHO-B1 cells, agonist LysDABK. It is filed as cell-based. The following applies: CHO-B1 cells, inhibition of LysDABK (EC80)-evoked [Ca2+]i elevation; read-out: B1 func. The gist of the method: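 IC50 is the concentration giving half-maximal inhibition of the LysDABK (EC80) calcium response, fitted from at least three experiments. CHO cells stably expressing human B1 were dye-loaded, exposed to compound for 20-25 min, then read by fluo-4 fluorescence (ΔF/F) at 37 °C.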

Take `Cc1nc(-c2c(Cl)c3ccccc3n2-c2ccc(CNC(=O)C3(NC(=O)c4ccoc4)CC3)cc2)no1` [Example 137, Furan-3-carboxylic acid (1-{4-[3-chloro-2-(5-methyl-[1,2,4]oxadiazol-3-yl)-indol-1-yl]-benzylcarbamoyl}-cyclopropyl)-amide]: the Ki in experiment [1] was less than 20 nM. Moreover, the IC50 in experiment [2] was less than 20 nM.
For `Cc1nc(-c2c(Cl)c3ccccc3n2-c2ccc(CNC(=O)C3(NC(=O)C4CC4C)CC3)cc2)no1` (centres unmarked) [Example 138, 2-Methyl-cyclopropanecarboxylic acid (1-{4-[3-chloro-2-(5-methyl-[1,2,4]oxadiazol-3-yl)-indol-1-yl]-benzylcarbamoyl}-cyclopropyl)-amide], in experiment [1], the Ki was less than 20 nM. Besides, the IC50 in experiment [2] lay within 20 to 100 nM.
In the same order, the values of `C#CCCC(=O)NC1(C(=O)NCc2ccc(-n3c(-c4noc(C)n4)c(Cl)c4ccccc43)cc2)CC1` [Example 139, 1-Pent-4-ynoylamino-cyclopropanecarboxylic acid 4-[3-chloro-2-(5-methyl-[1,2,4]oxadiazol-3-yl)-indol-1-yl]-benzylamide] are less than 20 nM and less than 20 nM.
As to `Cc1nc(-c2c(Cl)c3ccccc3n2-c2ccc(CNC(=O)C3(NC(=O)CCC(C)C)CC3)cc2)no1` [Example 140, 1-(4-Methyl-pentanoylamino)-cyclopropanecarboxylic acid 4-[3-chloro-2-(5-methyl-[1,2,4]oxadiazol-3-yl)-indol-1-yl]-benzylamide], the Ki in experiment [1] is less than 20 nM. Also, in experiment [2], the IC50 is less than 20 nM.
Turning to `Cc1nc(-c2c(Cl)c3ccccc3n2-c2ccc(CNC(=O)C3(NC(=O)c4cn[nH]c4)CC3)cc2)no1` [Example 141, 1H-Pyrazole-4-carboxylic acid (1-{4-[3-chloro-2-(5-methyl-[1,2,4]oxadiazol-3-yl)-indol-1-yl]-benzylcarbamoyl}-cyclopropyl)-amide], in experiment [1], the Ki was less than 20 nM. Moreover, in experiment [2], the IC50 is less than 20 nM.
As to `Cc1nc(-c2c(Cl)c3ccccc3n2-c2ccc(CNC(=O)C3(NC(=O)C4(C#N)CC4)CC3)cc2)no1` [Example 142, 1-Cyano-cyclopropanecarboxylic acid (1-{4-[3-chloro-2-(5-methyl-[1,2,4]oxadiazol-3-yl)-indol-1-yl]-benzylcarbamoyl}-cyclopropyl)-amide], in experiment [1], the Ki is less than 20 nM. Moreover, in experiment [2], the IC50 fell in the range of 20 to 100 nM.
In the same order, the values of `Cc1nc(-c2c(Cl)c3ccccc3n2-c2ccc(CNC(=O)C3(NC(=O)C4CCC4)CC3)cc2)no1` [Example 143, Cyclobutanecarboxylic acid (1-{4-[3-chloro-2-(5-methyl-[1,2,4]oxadiazol-3-yl)-indol-1-yl]-benzylcarbamoyl}-cyclopropyl)-amide] are less than 20 nM and less than 20 nM.
For `Cc1nc(-c2c(Cl)c3ccccc3n2-c2ccc(CNC(=O)C3(NC(=O)C4CCCC4)CC3)cc2)no1` [Example 144, Cyclopentanecarboxylic acid (1-{4-[3-chloro-2-(5-methyl-[1,2,4]oxadiazol-3-yl)-indol-1-yl]-benzylcarbamoyl}-cyclopropyl)-amide], in that order: 20 to 100 nM and 20 to 100 nM.
In the same order, the values of `Cc1nc(-c2c(Cl)c3ccccc3n2-c2ccc(CNC(=O)C3(NC(=O)c4ccco4)CC3)cc2)no1` [Example 145, Furan-2-carboxylic acid (1-{4-[3-chloro-2-(5-methyl-[1,2,4]oxadiazol-3-yl)-indol-1-yl]-benzylcarbamoyl}-cyclopropyl)-amide] are 20 to 100 nM and 20 to 100 nM.
Regarding `Cc1nc(-c2c(Cl)c3ccccc3n2-c2ccc(CNC(=O)C3(NC(=O)c4cccc(C#N)c4)CC3)cc2)no1` [Example 146, N-(1-{4-[3-Chloro-2-(5-methyl-[1,2,4]oxadiazol-3-yl)-indol-1-yl]-benzylcarbamoyl}-cyclopropyl)-3-cyano-benzamide], the Ki in experiment [1] was less than 20 nM. Besides, the IC50 in experiment [2] was less than 20 nM.
As for `Cc1nc(-c2c(Cl)c3ccccc3n2-c2ccc(CNC(=O)C3(NC(=O)Cc4ccsc4)CC3)cc2)no1` [Example 147, 1-(2-Thiophen-3-yl-acetylamino)-cyclopropanecarboxylic acid 4-[3-chloro-2-(5-methyl-[1,2,4]oxadiazol-3-yl)-indol-1-yl]-benzylamide], in experiment [1], the Ki was 100 to 500 nM. Moreover, the IC50 in experiment [2] fell in the range of 20 to 100 nM.
For `Cc1nc(-c2c(Cl)c3ccccc3n2-c2ccc(CNC(=O)C3(NC(=O)c4cc(C)n(C)n4)CC3)cc2)no1` [Example 148, 1,5-Dimethyl-1H-pyrazole-3-carboxylic acid (1-{4-[3-chloro-2-(5-methyl-[1,2,4]oxadiazol-3-yl)-indol-1-yl]-benzylcarbamoyl}-cyclopropyl)-amide], in that order: less than 20 nM and 20 to 100 nM.
As to `Cc1nc(-c2c(Cl)c3ccccc3n2-c2ccc(CNC(=O)C3(NC(=O)c4scnc4C)CC3)cc2)no1` [Example 149, 4-Methyl-thiazole-5-carboxylic acid (1-{4-[3-chloro-2-(5-methyl-[1,2,4]oxadiazol-3-yl)-indol-1-yl]-benzylcarbamoyl}-cyclopropyl)-amide], in experiment [1], the Ki was less than 20 nM. Moreover, the IC50 in experiment [2] lay in the range of 20 to 100 nM.
For `Cc1nc(-c2c(Cl)c3ccccc3n2-c2ccc(CNC(=O)C3(NC(=O)c4sc(C)nc4C)CC3)cc2)no1` [Example 150, 2,4-Dimethyl-thiazole-5-carboxylic acid (1-{4-[3-chloro-2-(5-methyl-[1,2,4]oxadiazol-3-yl)-indol-1-yl]-benzylcarbamoyl}-cyclopropyl)-amide], the Ki in experiment [1] was less than 20 nM. Moreover, the IC50 in experiment [2] fell in the range of 20 to 100 nM.
Turning to `CC(=O)NC(CO)C(=O)NC1(C(=O)NCc2ccc(-n3c(-c4noc(C)n4)c(Cl)c4ccccc43)cc2)CC1` (centres unmarked) [Example 151, 1-(2-Acetylamino-3-hydroxy-propionylamino)-cyclopropanecarboxylic acid 4-[3-chloro-2-(5-methyl-[1,2,4]oxadiazol-3-yl)-indol-1-yl]-benzylamide], in experiment [1], the Ki was 100 to 500 nM. Moreover, the IC50 in experiment [2] was in the range of 100 to 500 nM.
For `Cc1cc(C(=O)NC2(C(=O)NCc3ccc(-n4c(-c5noc(C)n5)c(Cl)c5ccccc54)cc3)CC2)n[nH]1` [Example 152, 5-Methyl-1H-pyrazole-3-carboxylic acid (1-{4-[3-chloro-2-(5-methyl-[1,2,4]oxadiazol-3-yl)-indol-1-yl]-benzylcarbamoyl}-cyclopropyl)-amide], in experiment [1], the Ki is less than 20 nM. Further, the IC50 in experiment [2] is 20 to 100 nM.
For `Cc1nc(-c2c(Cl)c3ccccc3n2-c2ccc(CNC(=O)C3(NC(=O)c4cccnc4Cl)CC3)cc2)no1` [Example 153, 2-Chloro-N-(1-{4-[3-chloro-2-(5-methyl-[1,2,4]oxadiazol-3-yl)-indol-1-yl]-benzylcarbamoyl}-cyclopropyl)-nicotinamide], in that order: less than 20 nM and less than 20 nM.
In the same order, the values of `Cc1ccc(C(=O)NC2(C(=O)NCc3ccc(-n4c(-c5noc(C)n5)c(Cl)c5ccccc54)cc3)CC2)cn1` [Example 154, N-(1-{4-[3-Chloro-2-(5-methyl-[1,2,4]oxadiazol-3-yl)-indol-1-yl]-benzylcarbamoyl}-cyclopropyl)-6-methyl-nicotinamide] are less than 20 nM and less than 20 nM.
As to `Cc1nc(-c2c(Cl)c3ccccc3n2-c2ccc(CNC(=O)C3(NC(=O)c4cccnc4C)CC3)cc2)no1` [Example 155, N-(1-{4-[3-Chloro-2-(5-methyl-[1,2,4]oxadiazol-3-yl)-indol-1-yl]-benzylcarbamoyl}-cyclopropyl)-2-methyl-nicotinamide], the Ki in experiment [1] fell in the range of 20 to 100 nM. The IC50 in experiment [2] was 20 to 100 nM.
Consider `Cc1ccc(C(=O)NC2(C(=O)NCc3ccc(-n4c(-c5noc(C)n5)c(Cl)c5ccccc54)cc3)CC2)c(Cl)n1` [Example 156, 2-Chloro-N-(1-{4-[3-chloro-2-(5-methyl-[1,2,4]oxadiazol-3-yl)-indol-1-yl]-benzylcarbamoyl}-cyclopropyl)-6-methyl-nicotinamide], for which, in experiment [1], the Ki was less than 20 nM. Further, in experiment [2], the IC50 is less than 20 nM.
`Cc1nc(-c2c(Cl)c3ccccc3n2-c2ccc(CNC(=O)C3(NC(=O)c4cccc(Br)n4)CC3)cc2)no1` [Example 157, 6-Bromo-pyridine-2-carboxylic acid (1-{4-[3-chloro-2-(5-methyl-[1,2,4]oxadiazol-3-yl)-indol-1-yl]-benzylcarbamoyl}-cyclopropyl)-amide]: in experiment [1], the Ki is less than 20 nM. Also, the IC50 in experiment [2] lay within 20 to 100 nM.
For `Cc1nc(-c2c(Cl)c3ccccc3n2-c2ccc(CNC(=O)C3(NC(=O)c4cccnc4)CC3)cc2)no1` [Example 158, N-(1-{4-[3-Chloro-2-(5-methyl-[1,2,4]oxadiazol-3-yl)-indol-1-yl]-benzylcarbamoyl}-cyclopropyl)-nicotinamide], in experiment [1], the Ki is less than 20 nM. Besides, in experiment [2], the IC50 was less than 20 nM.
